In US20090280167A1, “ENHANCEMENT OF DRUG THERAPY BY MIRNA” (Abraxis BioScience, LLC, priority 2008, published 2009):

How the values were obtained:
Format in all cases: cell-based
colon cancer line HT29 = assay: Apo-ONE Homogeneous Caspase-3/7 assay of 17-AAG apoptotic activity; conditions: HT29 cells, 72 hours at 37° C., Caspase-3/7 activity
Text: The Apo-ONE® Homogeneous Caspase-3/7 Assay (Promega, Madison, Wis.) uses a proprietary lysis/activity buffer, in conjunction with the (Z-DEVD)2-Rhodamine 110 substrate, enables a simple “add-mix-read” format for the detection of caspase-3 and -7 in adherent, suspension, and primary culture cells, or in purified caspase preparations. The assay uses a rhodamine 110-based substrate allows for exquisite sensitivity previously unobtainable with conventional colorimetric or fluorometric assays.
Specifically, 100 μl of Apo-ONE® Caspase-3/7 Reagent was added to each well of a white or black 96-well plate containing 100 μl of blank, control or cells in culture. The plate was covered with a plate sealer for incubating for extended periods (>4 hours). In order to perform this assay in a 384-well plate, a 1:1 volume ratio of Apo-ONE® Caspase-3/7 Reagent to sample was used. The contents of wells were mixed using a plate shaker at 300-500 rpm from 30 seconds and incubated at room temperature for 6 hours. The fluorescence of each well was determined at 485/538 nm (a measure of apoptosis, with the higher ratio indicating more apoptosis).
The apoptotic activity of 17-AAG (17-(Allylamino)-17-demethoxygeldanamycin) was determined in the colon cancer line HT29 using an assay for Caspase-3/7 activity (Apo-ONE kit, Promega). 17-AAG-treated HT29 cells were compared with DMSO-treated control (FIG. 1). […]

Her2 [1] = assay: Her2 suppression assay (anti-Her2 immunostaining, absorbance at 405 nm); conditions: BT474 cells, 24-hours treatment
Description: Ten thousand BT474 cells per well were seeded into a microtiter plate and grown for 48 hours. After this preincubation, the BT474 cells treated with various concentrations of 17-AAG and its analogs for 24-hours. At the end of this incubation the media was removed from each well, each well was washed twice with ice-cold Tris buffer saline (containing 0.1% Tween 20) and the cells were fixed with Methanol (ice-cold) at […] for 10 minutes. The fixed BT474 cells were immunostained with anti-Her2 antibody. The presence of Her2 protein was determined by measurement of the absorbance at 405 nm in the plate reader.

Her2 [2] = assay: Confocal imaging of Her2 internalization and degradation; conditions: BT474 cells, concentration of IC50, 24 hours, confocal image
Description: 17-AAG treated BT474 cells were examined by the confocal images system. BT474 cells were seeded on the slide and treated at the concentration of IC50 for 24 hours. 17AAG-treated and control BT474 cells were fixed with Methanol, stained with Her2 antibody and analyzed by the confocal image.

HT29 cells [3] = assay: Apoptotic activity of 17-AAG combined with anticancer agents (Apo-ONE kit); conditions: three days after drug treatment
Description: A panel of anticancer chemotherapeutical agents was tested for the enhancement of apoptotic activity with 17-AAG (using the same apoptotic assay system in Example 1), FIG. 4. HT29 cells were treated with various concentration of 17-AGG in the presence or absence of anticancer agents including known HSP70 promoter inducers. Three days after the drug treatment, the apoptotic activity was measured by the Apo-ONE kit (see above). When combined with the anticancer agents, including HSP70 inducers (such as Cisplatin, Etoposide, Doxorubicin, Velcade, Dimethylenastron). […] Some inhibition was also observed for other inducers of HSP70.

HT29 colon cancer line = assay: miRNA library screen for enhancement of 17-AAG apoptotic activity (Apo-ONE caspase); conditions: HT29, miRNA transfected 48 hours, then 17-AAG 48 hours, both 1:800 and 1:3200 dilutions of 17-AAG
Description: In order to observe an enhancement of activity in 17-AAG, a miRNA library of 470 Pre-miRNA precursors have been transfected (Ambion, siPORT NeoFx transfection agent) in to the HT29 colon cancer line and followed by 17-AAG treatment. Synthetic ds-miRNAs from the miRNA library were transfected into HT29 cells and incubated for 48 hours at 37° C. Various concentrations of 17-AAG were added to miRNA transfected HT29 cells and incubated for another 48 hours. 100 uL of media was aspirated from each well. Apo-One caspase reagent was prepared by diluting the substrate in buffer in a 1:100 concentration. 100 uL of the reagent was added to each well. Plates were incubated at room temperature for 6 hours. The apoptotic activity was measured by the Fluoroskan plate reader. […] Molecules that synergized at both 1:800 and 1:3200 dilutions of 17-AAG were miR-145, miR-454-3p, miR519a, miR-520c, and miR-520d (SEQ ID NOS:1-5), (FIG. 5, dark background, respectively).

HT29 cells [4] = assay: miRNA concentration dependency of 17-AAG synergy; conditions: 17-AAG 3.125 ug/ml, miRNA 60, 30, 15, 7.5 nM
Description: To confirm the activity shown in Example 6, the experiment was repeated with constant amount of 17-AAG (3.125 ug/ml) and increasing amount of miRNAs (60, 30, 15, 7.5 nM) used for transfection. […] There were two distinct classes of miRNAs according to activity (one class with high activity: miR454 (SEQ ID NO:2), miR-520c (SEQ ID NO:4) and miR-520d (SEQ ID NO:5); one class with low activity: miR-145 (SEQ ID NO:1) and miR-519a (SEQ ID NO:3)).

HT29 cells [5] = assay: miRNA enhancement of oxaliplatin or paclitaxel apoptosis (Apo-ONE Caspase-3/7 Assay); conditions: HT29, miRNA 30 nM 48 hours; for Level of apoptosis in oxaliplatin treated cells expressing exogenous miRNA: then 15.6 μg/ml oxaliplatin 48 hours; for Level of apoptosis in paclitaxel treated cells expressing exogenous miRNA: then 7.8 μg/ml paclitaxel 48 hours
Description: A transfection medium was made up by diluting siPORT NeoFx (0.3 μl/well) in OPTI-MEM (16.7 ul/well) in the wells of a microtiter plate and this medium was incubated for 10 minutes at room temperature. A pre-miRNA library was diluted to 1 μM and […] of miRNA was added to each well (30 nM). This mixture was incubated at room temperature for another 10 minutes. HT29 cells were then added at 30,000 cells/well and the plates were incubated 48 hours 37° C.
For treatment with candidate therapeutic agents, the media was aspirated from each well and 200 μl/well of 15.6 μg/ml oxaliplatin, 7.8 μg/ml paclitaxel or negative control solution was added. The plates were incubated for 48 hours 37° C. The Apo-ONE® Homogeneous Caspase-3/7 Assay (Promega, Madison, Wis., USA) was performed on the treated cells. The reactions were performed in duplicate.

C=CCNC1=C2C[C@@H](C)C[C@H](OC)[C@H](O)[C@@H](C)/C=C(\C)[C@H](OC(N)=O)[C@@H](OC)/C=C\C=C(/C)C(=O)NC(=CC1=O)C2=O [17-AAG, 17-(Allylamino)-17-demethoxygeldanamycin]
EC50 of apoptosis induction (colon cancer line HT29): 0.07 µg/mL | EC50 (colon cancer line HT29; read-out: EC50 of apoptosis induction): 120 nM | IC50 (Her2 [1]): ~32 nM | Her2 protein expression and localization after treatment (Her2 [2]): eliminated from its cell surface sub-localization to cytoplasm

CC(C)C[C@H](NC(=O)[C@H](Cc1ccccc1)NC(=O)c1cnccn1)B(O)O [Velcade]
Effect of the added anticancer agent on apoptotic activity of 17-AAG (HT29 cells [3]): strongly inhibited

miR519a: miRNA AAAGUGCAUCCUUUUAGAGUGUUAC (SEQ ID NO:3) (listed as RNA, chemistry not given here; listed as Homo sapiens)
Synergy with 17-AAG in apoptotic reading (HT29 colon cancer line): synergized | Class of activity in synergy with 17-AAG (HT29 cells [4]): low activity

miR-145: miRNA GUCCAGUUUUCCCAGGAAUCCCUU (SEQ ID NO:1) (listed as RNA, chemistry not given here; listed as Homo sapiens)
Synergy with 17-AAG in apoptotic reading (HT29 colon cancer line): synergized | Class of activity in synergy with 17-AAG (HT29 cells [4]): low activity

miR-454-3p: miRNA UAGUGCAAUAUUGCUUAUAGGGUUU (SEQ ID NO:2) (listed as RNA, chemistry not given here; listed as Homo sapiens)
Synergy with 17-AAG in apoptotic reading (HT29 colon cancer line): synergized | Class of activity in synergy with 17-AAG (HT29 cells [4]): high activity | Level of apoptosis in oxaliplatin treated cells expressing exogenous miRNA (HT29 cells [5]): highest level of apoptosis

miR-520c: miRNA AAAGUGCUUCCUUUUAGAGGGUU (SEQ ID NO:4) (listed as RNA, chemistry not given here; listed as Homo sapiens)
Synergy with 17-AAG in apoptotic reading (HT29 colon cancer line): synergized | Class of activity in synergy with 17-AAG (HT29 cells [4]): high activity | Level of apoptosis in oxaliplatin treated cells expressing exogenous miRNA (HT29 cells [5]): highest level of apoptosis

miR-520d: miRNA AAAGUGCUUCUCUUUGGUGGGUU (SEQ ID NO:5) (listed as RNA, chemistry not given here; listed as Homo sapiens)
Synergy with 17-AAG in apoptotic reading (HT29 colon cancer line): synergized | Class of activity in synergy with 17-AAG (HT29 cells [4]): high activity | Level of apoptosis in oxaliplatin treated cells expressing exogenous miRNA (HT29 cells [5]): highest level of apoptosis

mir 425-3p: miRNA AUCGGGAAUGUCGUGUCCGCC (SEQ ID NO:6) (AUCGGGAAUGUCGUGUCCGCCC; listed as RNA, chemistry not given here; listed as Homo sapiens)
Level of apoptosis in paclitaxel treated cells expressing exogenous miRNA (HT29 cells [5]): highest levels of apoptosis

mir 495: miRNA AAACAAACAUGGUGCACUUCUUU (SEQ ID NO:7) (listed as RNA, chemistry not given here; listed as Homo sapiens)
Level of apoptosis in paclitaxel treated cells expressing exogenous miRNA (HT29 cells [5]): highest levels of apoptosis

mir 572: miRNA GUCCGCUCGGCGGUGGCCCA (SEQ ID NO:8) (listed as RNA, chemistry not given here; listed as Homo sapiens)
Level of apoptosis in paclitaxel treated cells expressing exogenous miRNA (HT29 cells [5]): highest levels of apoptosis

mir 661: miRNA UGCCUGGGUCUCUGGCCUGCGCGU (SEQ ID NO:9) (listed as RNA, chemistry not given here; listed as Homo sapiens)
Level of apoptosis in paclitaxel treated cells expressing exogenous miRNA (HT29 cells [5]): highest levels of apoptosis
